The record followed here is US20030044399A1, “Method of treatment” (SmithKline Beecham Corporation, priority 1998, published 2003).

One test concerns the target Leishmania L (Leishmania major, UniProt P90628). Nature of the test: Cysteine protease inhibition, progress curve method, leishmania L. The format is biochemical, Leishmania spp. The following applies: 10 uM Cbz-Phe-Arg-AMC, 100 mM Na acetate pH 5.5, 5 mM cysteine. Here is the method: Standard assay conditions for the determination of kinetic constants used 10 uM fluorogenic peptide substrate, Cbz-Phe-Arg-AMC for the cysteine proteases from Leishmania spp and Schistosoma Mansoni, Cbz-Leu-Arg-AMC for the cysteine proteases from Plasmodium falciparum and Trypanosoma brucei rhodesiensi, and Ac-Lys-Glu-Lys-Leu-Arg-AMC (4 uM final substrate concentration) for the cysteine protease from Trypoanosoma cruzi, and were determined in 100 mM Na acetate at pH 5.5 containing 5 mM cysteine. Stock substrate solutions were prepared at concentrations of […] in DMSO with 10 uM (4 uM for Ac-Lys-Glu-Lys-Leu-Arg-AMC) final substrate concentration in the assays. The final DMSO concentration was 2% and the final volume was 100 uL. All assays were conducted at ambient temperature. […]
Potential inhibitors were evaluated using the progress curve method. […] For those compounds whose progress curves were linear, apparent inhibition constants (Ki,app) were calculated according to equation 1 (Brandt et al., Biochemitsry, 1989, 28, 140): […]
Where [AMC] is the concentration of product formed over time t, v0 is the initial reaction velocity and vss is the final steady state rate. Values for kobs were then analyzed as a linear function of inhibitor concentration to generate an apparent second order rate constant (kobs/inhibitor concentration or kobs/[I]) describing the time-dependent inhibition. […]

Another test concerns the target Falcipain 2 (Plasmodium falciparum, UniProt Q8I6U4). Nature of the test: Cysteine protease inhibition, progress curve method, falcipain. The test is classed as biochemical. The following applies: 10 uM Cbz-Leu-Arg-AMC, 100 mM Na acetate pH 5.5, 5 mM cysteine. An outline of the steps: (§1)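 Buffer was 100 mM sodium acetate pH 5.5 with 5 mM cysteine and 2% DMSO, at ambient temperature; reactions started with enzyme, and AMC formation was followed for 20–30 min. Substrates: Leishmania and Schistosoma, 10 uM Cbz-Phe-Arg-AMC; falcipain, 10 uM Cbz-Leu-Arg-AMC; cruzain, 4 uM Ac-Lys-Glu-Lys-Leu-Arg-AMC. Linear curves gave Ki,app; curved ones gave kobs/[I].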

In the next test the target is Cruzain (Trypanosoma cruzi, UniProt P25779). Nature of the test: Cysteine protease inhibition, progress curve method, cruzain. The following applies: 4 uM Ac-Lys-Glu-Lys-Leu-Arg-AMC, 100 mM Na acetate pH 5.5, 5 mM cysteine; read-out: Cruzain Ki. The test is classed as biochemical. An outline of the steps:
as §1

The target of the next test is Rhodazain (Trypanosoma brucei rhodesiense, UniProt Q95PM0). Nature of the test: Cysteine protease inhibition, progress curve method, rhodazain. The format is biochemical, Trypanosoma brucei rhodesiensi. The following applies: Rhodazain Ki (nM), 10 uM Cbz-Leu-Arg-AMC, 100 mM Na acetate pH 5.5, 5 mM cysteine.
Rhodazain, sequence (Q95PM0 entry or part of it): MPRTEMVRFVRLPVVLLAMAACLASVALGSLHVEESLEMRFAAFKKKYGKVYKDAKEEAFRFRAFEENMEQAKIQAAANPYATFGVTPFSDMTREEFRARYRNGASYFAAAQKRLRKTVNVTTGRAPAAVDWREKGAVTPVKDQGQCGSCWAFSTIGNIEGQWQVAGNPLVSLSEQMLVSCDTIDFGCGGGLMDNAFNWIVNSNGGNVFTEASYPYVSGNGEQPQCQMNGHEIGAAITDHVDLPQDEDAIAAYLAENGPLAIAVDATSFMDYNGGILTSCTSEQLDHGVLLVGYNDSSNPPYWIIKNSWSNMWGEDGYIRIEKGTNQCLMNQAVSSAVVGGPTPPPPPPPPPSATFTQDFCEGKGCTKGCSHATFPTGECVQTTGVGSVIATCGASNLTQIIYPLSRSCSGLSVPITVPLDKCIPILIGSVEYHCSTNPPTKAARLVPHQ
The target of another test is T1, Leishmania B (UniProt P90627).
T1 sequence (P90627 1-340): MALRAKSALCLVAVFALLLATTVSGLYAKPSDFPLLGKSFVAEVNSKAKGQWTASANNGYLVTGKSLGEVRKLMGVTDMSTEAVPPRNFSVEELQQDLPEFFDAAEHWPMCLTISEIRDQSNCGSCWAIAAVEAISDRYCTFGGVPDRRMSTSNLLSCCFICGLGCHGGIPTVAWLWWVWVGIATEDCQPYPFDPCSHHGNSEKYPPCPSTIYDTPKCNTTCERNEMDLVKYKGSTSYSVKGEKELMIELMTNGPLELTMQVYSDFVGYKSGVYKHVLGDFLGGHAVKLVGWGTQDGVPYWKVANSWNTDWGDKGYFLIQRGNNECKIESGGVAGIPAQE
Nature of the test: Cysteine protease inhibition, progress curve method, leishmania B. The test is classed as biochemical, Leishmania spp. The following applies: read-out: Leishmania B Ki nM; 10 uM Cbz-Phe-Arg-AMC, 100 mM Na acetate pH 5.5, 5 mM cysteine. As for the experimental part: Standard assay conditions for the determination of kinetic constants used 10 uM fluorogenic peptide substrate, Cbz-Phe-Arg-AMC for the cysteine proteases from Leishmania spp and Schistosoma Mansoni, Cbz-Leu-Arg-AMC for the cysteine proteases from Plasmodium falciparum and Trypanosoma brucei rhodesiensi, and Ac-Lys-Glu-Lys-Leu-Arg-AMC (4 uM final substrate concentration) for the cysteine protease from Trypoanosoma cruzi, and were determined in 100 mM Na acetate at pH 5.5 containing 5 mM cysteine. Stock substrate solutions were prepared at concentrations of […] in DMSO with 10 uM (4 uM for Ac-Lys-Glu-Lys-Leu-Arg-AMC) final substrate concentration in the assays. The final DMSO concentration was 2% and the final volume was 100 uL. All assays were conducted at ambient temperature. Product progress curves were generated over 20 to 30 minutes following formation of AMC product.
Potential inhibitors were evaluated using the progress curve method. Assays were carried out in the presence of variable concentrations of test compound. Reactions were initiated by addition of enzyme to buffered solutions of inhibitor and substrate. Data analysis was conducted according to one of two procedures depending on the appearance of the progress curves in the presence of inhibitors. For those compounds whose progress curves were linear, apparent inhibition constants (Ki,app) were calculated according to equation 1 (Brandt et al., Biochemitsry, 1989, 28, 140):
v=VmA/[Ka(1+I/Ki,app)+A] (1)
Where v is the velocity of the reaction with maximal velocity Vm, A is the concentration of substrate with Michaelis constant of Ka, and I is the concentration of inhibitor.
[AMC]=vsst+(v0−vss)[1−exp (−kobst)]/kobs (2)
Where [AMC] is the concentration of product formed over time t, v0 is the initial reaction velocity and vss is the final steady state rate. Values for kobs were then analyzed as a linear function of inhibitor concentration to generate an apparent second order rate constant (kobs/inhibitor concentration or kobs/[I]) describing the time-dependent inhibition. A complete discussion of this kinetic treatment has been fully described (Morrison et al., Adv. Enzymol. Relat. Areas Mol. Biol., 1988, 61, 201).
Exemplary inhibition data for the compounds used in the present method collected in accordance with the above-described procedure are listed in Table I.

A further test concerns the target Schisto B 1 (Schistosoma mansoni, UniProt P25792). Nature of the test: Cysteine protease inhibition, progress curve method, schistosoma B 1. The format is biochemical. The following applies: 10 uM Cbz-Phe-Arg-AMC, 100 mM Na acetate pH 5.5, 5 mM cysteine; read-out: Schisto B 1 Ki. An outline of the steps:
as §1

The target of the next test is Schisto B 2 (Schistosoma mansoni, UniProt Q95PM1). Nature of the test: Cysteine protease inhibition, progress curve method, schistosoma B 2. The test is classed as biochemical. The following applies: 10 uM Cbz-Phe-Arg-AMC, 100 mM Na acetate pH 5.5, 5 mM cysteine. In outline:
as §1

Schisto B 2, sequence (Q95PM1 entry or part of it): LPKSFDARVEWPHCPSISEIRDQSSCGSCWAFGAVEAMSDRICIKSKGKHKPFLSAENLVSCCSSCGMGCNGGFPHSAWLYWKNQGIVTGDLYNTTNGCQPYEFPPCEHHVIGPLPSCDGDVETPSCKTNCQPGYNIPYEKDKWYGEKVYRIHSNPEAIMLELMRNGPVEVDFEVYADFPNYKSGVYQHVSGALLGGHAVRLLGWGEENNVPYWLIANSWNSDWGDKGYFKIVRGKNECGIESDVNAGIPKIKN
Falcipain 2, sequence (Q8I6U4 244-484): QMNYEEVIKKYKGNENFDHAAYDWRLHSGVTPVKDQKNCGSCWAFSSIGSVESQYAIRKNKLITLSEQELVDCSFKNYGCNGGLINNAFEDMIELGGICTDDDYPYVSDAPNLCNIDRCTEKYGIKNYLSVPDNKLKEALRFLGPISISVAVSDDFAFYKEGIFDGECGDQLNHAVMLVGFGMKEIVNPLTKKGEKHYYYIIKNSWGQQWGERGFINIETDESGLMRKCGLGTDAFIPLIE
Leishmania L, sequence (P90628 126-443): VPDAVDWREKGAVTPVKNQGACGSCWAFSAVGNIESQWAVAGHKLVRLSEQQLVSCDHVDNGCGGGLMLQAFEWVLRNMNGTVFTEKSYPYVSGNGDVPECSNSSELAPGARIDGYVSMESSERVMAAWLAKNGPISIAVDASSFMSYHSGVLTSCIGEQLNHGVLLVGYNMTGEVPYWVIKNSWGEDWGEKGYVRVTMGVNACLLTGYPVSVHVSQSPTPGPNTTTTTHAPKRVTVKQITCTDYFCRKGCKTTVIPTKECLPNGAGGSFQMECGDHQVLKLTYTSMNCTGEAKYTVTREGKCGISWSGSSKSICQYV
Cruzain, sequence (P25779 123-337): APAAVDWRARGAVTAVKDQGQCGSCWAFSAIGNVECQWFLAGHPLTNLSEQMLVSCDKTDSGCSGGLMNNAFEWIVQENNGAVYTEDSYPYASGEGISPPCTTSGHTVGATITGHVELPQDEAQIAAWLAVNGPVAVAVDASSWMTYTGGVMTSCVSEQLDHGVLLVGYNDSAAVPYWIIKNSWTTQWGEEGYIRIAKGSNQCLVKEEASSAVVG
Schisto B 1, sequence (P25792 89-340): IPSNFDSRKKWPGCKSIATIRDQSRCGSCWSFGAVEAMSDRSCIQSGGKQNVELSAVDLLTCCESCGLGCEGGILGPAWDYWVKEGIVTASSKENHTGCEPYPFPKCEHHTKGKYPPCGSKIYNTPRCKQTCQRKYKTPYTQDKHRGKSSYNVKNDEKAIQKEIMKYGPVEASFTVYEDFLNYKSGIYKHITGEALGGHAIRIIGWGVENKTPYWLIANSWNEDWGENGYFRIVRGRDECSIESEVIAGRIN

The molecule “Naphthlene-2-carboxylic acid ((S)-3-methyl-1-{3-oxo-1-[2-(3-pyridin-2-yl-phenyl)ethyl]-azepan-4-ylcarbamoyl}-butyl)amide [Example 10]” registered a Ki on Leishmania L of 82 nM.
`CC(C)C[C@H](NC(=O)c1cc2sccc2s1)C(=O)N[C@H]1C[C@H](C)CN(S(=O)(=O)c2ccccn2)CC1=O` [Example 200, Thieno[3,2-]thiophene-2-carboxylic acid {(S)-3-methyl-1-[6-methyl-3-oxo-1-(pyridine-2-sulfonyl)-azepan-4-ylcarbamoyl]-butyl}-amide]: the inhibition constant (Ki) at Falcipain 2 amounted to 4.1 nM; at Cruzain it was 2.7 nM; on Rhodazain it was 2.3 nM; at Leishmania B it was 4.7 nM; at Schisto B 1, 63 nM; at Schisto B 2, 65 nM.
